Assay results from US7781477B2, “Therapeutic use of N-(1H-Indolyl)-1H-indole-2-carboxamide derivatives” (Sanofi-Aventis, priority 2004, dated 2010).

Legend:
[1] = biological target: T1, TRPV1 receptors (Mus musculus, UniProt Q704Y3); experiment: Mouse corneal irritation test (capsaicin ocular instillation); type: in vivo; settings: percentage of protection against rubbing of the eye induced by 2 μl of 160 μM capsaicin, pretreatment time 1 h
T1 construct: from tissue; host or cells: living mouse, cornea (C fibers)
T1 sequence (Q704Y3 whole entry): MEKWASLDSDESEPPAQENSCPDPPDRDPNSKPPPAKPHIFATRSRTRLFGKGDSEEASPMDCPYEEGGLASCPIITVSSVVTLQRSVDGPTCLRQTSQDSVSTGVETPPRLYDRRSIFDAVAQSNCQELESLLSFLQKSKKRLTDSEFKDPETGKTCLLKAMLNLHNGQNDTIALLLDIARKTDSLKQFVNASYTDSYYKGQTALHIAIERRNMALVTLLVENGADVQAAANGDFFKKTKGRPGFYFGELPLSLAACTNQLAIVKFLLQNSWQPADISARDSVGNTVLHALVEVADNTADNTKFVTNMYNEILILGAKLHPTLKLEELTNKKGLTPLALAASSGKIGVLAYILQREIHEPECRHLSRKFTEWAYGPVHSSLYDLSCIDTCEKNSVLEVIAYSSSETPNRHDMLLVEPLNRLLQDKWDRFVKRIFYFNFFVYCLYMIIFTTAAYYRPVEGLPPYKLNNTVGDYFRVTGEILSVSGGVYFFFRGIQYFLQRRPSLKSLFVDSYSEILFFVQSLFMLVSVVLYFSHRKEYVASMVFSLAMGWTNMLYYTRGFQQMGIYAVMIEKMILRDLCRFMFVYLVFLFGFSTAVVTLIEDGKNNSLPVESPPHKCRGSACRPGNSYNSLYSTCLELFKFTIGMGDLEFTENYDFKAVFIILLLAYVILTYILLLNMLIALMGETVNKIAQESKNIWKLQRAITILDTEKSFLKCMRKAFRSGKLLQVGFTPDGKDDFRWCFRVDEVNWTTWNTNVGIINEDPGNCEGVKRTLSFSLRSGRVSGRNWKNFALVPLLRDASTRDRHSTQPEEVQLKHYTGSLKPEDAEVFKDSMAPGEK
Description: Mouse Corneal Irritation Test
The irritating nature of capsaicin is easily assessed on the cornea since this organ is one of the most innervated by C fibers. In this context, according to preliminary experiments, the application of a very small amount of capsaicin (2 μl at a concentration of 160 μM) at the surface of the cornea of an animal results in a number of kinds of stereotyped behavior related to irritation which are easy to record. These include: blinking of the eye, rubbing of the instilled eye by the ipsilateral front paw, rubbing of the face with the two front paws and scratching of the ipsilateral face by the hind paw. […] Its appearance is furthermore also normal. […] It may be concluded therefrom that the duration of action of capsaicin at these doses is less than 2 minutes. […]
In practice, the test product is administered orally and, with a delay (pretreatment time: t) which depends on the pharmacokinetic data, the animal receives the ocular instillation of 2 μl of a 160 μM capsaicin solution prepared as indicated above. During observation for 2 minutes following the instillation, the number of rubbing actions on the instilled eye by the ipsilateral front paw is recorded.
For a given animal, the percentage of protection is calculated as follows: P=100−((number of scratching actions observed/mean number of scratching actions of the group treated with the solvent)×100). […]

[2] = biological target: T2, TRPV1 receptor (Rattus norvegicus, UniProt O35433); experiment: Inhibition of the current induced by capsaicin with regard to rat DRGs (whole cell patch clamp); type: cell-based; settings: DRG neuron; % inhibition of the control capsaicin (300 nM) response; compound at 10 nM; primary culture of newborn rat DRG neurons; read-out: % Inhibition by the DRG patch technique
T2 construct: The neurons of the DRG naturally express the TRPV1 receptor; endogenous in cells; host or cells: primary culture of newborn rat dorsal root ganglion (DRG) neurons
T2 sequence (O35433 whole entry): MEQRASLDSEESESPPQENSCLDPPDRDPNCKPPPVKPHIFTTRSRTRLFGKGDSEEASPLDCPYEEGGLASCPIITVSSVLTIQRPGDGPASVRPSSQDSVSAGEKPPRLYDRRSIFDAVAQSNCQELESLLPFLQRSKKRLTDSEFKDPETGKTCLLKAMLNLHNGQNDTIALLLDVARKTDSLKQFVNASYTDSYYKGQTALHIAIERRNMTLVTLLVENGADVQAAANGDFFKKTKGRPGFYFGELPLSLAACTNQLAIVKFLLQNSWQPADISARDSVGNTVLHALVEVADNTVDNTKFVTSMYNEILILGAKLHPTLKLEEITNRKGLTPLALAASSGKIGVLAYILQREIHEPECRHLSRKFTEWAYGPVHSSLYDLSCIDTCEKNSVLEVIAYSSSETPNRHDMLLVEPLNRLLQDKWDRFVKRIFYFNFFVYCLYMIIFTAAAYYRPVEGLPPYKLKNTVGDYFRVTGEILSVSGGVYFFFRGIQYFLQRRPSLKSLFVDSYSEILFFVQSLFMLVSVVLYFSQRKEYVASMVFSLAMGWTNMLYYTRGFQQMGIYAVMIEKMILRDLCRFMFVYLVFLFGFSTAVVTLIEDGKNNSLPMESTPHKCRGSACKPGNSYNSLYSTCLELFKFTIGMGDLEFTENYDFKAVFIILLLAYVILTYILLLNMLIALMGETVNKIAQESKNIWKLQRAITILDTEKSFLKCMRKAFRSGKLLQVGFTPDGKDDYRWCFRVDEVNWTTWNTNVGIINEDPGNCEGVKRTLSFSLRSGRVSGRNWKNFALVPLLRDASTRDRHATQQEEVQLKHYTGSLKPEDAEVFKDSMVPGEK
Description: Test of the Inhibition of the Current Induced by Capsaicin with Regard to Rat DRGs
Primary Culture of Rat Dorsal Route Ganglion (DRG) Cells:
The neurons of the DRG naturally express the TRPV1 receptor.
Primary cultures of DRGs of newborn rats are prepared from 1-day-old rats. Briefly, after dissection, the ganglions are trypsinized and their cells dissociated mechanically by gentle trituration. […]
The measurement chambers (volume 800 μl) comprising the cell preparation are placed on the stage of an inverted microscope (Olympus IMT2) equipped with Hoffman optics (Modulation Contrast, New York) and are observed at a magnification of 400×. […] The overall currents (membrane potential set at −60 mV) are recorded with an Axopatch 1D amplifier (Axon Instruments, Foster City, Calif.) connected to a PC controlled by Pclamp8 software (Axon Instruments). The current plots are recorded on paper and simultaneously recorded digitally (sampling frequency 15 to 25 Hz) and acquired on the hard disk of the PC.
The application of a 300 nM capsaicin solution produces an incoming cationic current with regard to the DRG cells (voltage set at −70 mV). […] The results are expressed as % of inhibition of the control capsaicin response.

Cn1ccc2cc(NC(=O)c3cc4ccccc4n3Cc3cccc(C(F)(F)F)c3)ccc21 [Compound No. 1, N-(1-Methyl-1H-indol-5-yl)-1-(3-trifluoromethylbenzyl)-1H-indole-2-carboxamide]
% P - (t) at 60 mg/kg (p.o.) - (n = 8) [1]: 26% - (1 h) | inhibition at 0.01 µM [2]: 56%
